# In PMC11785709, “Angelica gigas Nakai (Korean Dang-gui) Root Alcoholic Extracts in Health Promotion and Disease Therapy – active Phytochemicals and In Vivo Molecular Targets” (Pharmaceutical Research, 2025):
# Values joined by “and” are separate entries in the source; they are usually repeats but may differ in a detail not shown here. Identical values can stand only once. Like-named read-outs stand apart in the source and are kept apart here.
# Assays:
# DRAK2 (STK17B) = biological target: T1, DRAK2 (STK17B) (Homo sapiens, UniProt O94768); assay: KINOMEscan competition binding; conditions: for Kd: validation Kd titration, 0.003 to 50 µM, two values per cell
# T1 construct: purchased Eurofins DiscoverX (KINOMEscan)
# T1 sequence (O94768 1-372): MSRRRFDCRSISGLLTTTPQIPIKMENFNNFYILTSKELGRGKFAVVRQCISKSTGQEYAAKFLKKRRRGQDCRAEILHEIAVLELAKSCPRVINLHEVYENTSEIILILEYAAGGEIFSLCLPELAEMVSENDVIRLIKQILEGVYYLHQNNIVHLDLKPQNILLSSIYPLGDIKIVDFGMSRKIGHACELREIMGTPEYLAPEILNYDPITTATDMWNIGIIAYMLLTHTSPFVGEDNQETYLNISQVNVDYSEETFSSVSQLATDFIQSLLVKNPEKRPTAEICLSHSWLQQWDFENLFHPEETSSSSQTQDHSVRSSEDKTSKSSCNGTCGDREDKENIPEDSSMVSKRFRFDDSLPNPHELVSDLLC
# Experimental: (§1) Two distinct platforms were used for initial screening with 50 µM DOH vs. DMSO vehicle. The first was the Eurofins DiscoverX KINOMEscan® (Freemont, CA USA) profiling platform, which employed a proprietary active site-directed competition binding assay to quantitatively measure interactions between a test compound (i.e., DOH) and 468 human protein kinases and disease relevant mutant variants either directly (sterically) or indirectly (allosterically) to prevent a kinase binding to its immobilized substrate (ligand). The top 8 hits were subjected to secondary screening verification by DOH concentration-titration for dissociation constant (Kd). For ROCK1 and ROCK2, DA was chosen for Kd titration as well, because it is ~ 10 × higher than D in peripheral circulation due to its resistance to hydrolysis by carboxyesterase-2 (Fig. 1C).
# MKNK2 = biological target: T2, MKNK2 (Homo sapiens, UniProt Q9HBH9); assay: KINOMEscan competition binding; conditions: for Kd: validation Kd titration, 0.003 to 50 µM, two values per cell
# T2 construct: purchased Eurofins DiscoverX (KINOMEscan)
# T2 sequence (Q9HBH9 whole entry): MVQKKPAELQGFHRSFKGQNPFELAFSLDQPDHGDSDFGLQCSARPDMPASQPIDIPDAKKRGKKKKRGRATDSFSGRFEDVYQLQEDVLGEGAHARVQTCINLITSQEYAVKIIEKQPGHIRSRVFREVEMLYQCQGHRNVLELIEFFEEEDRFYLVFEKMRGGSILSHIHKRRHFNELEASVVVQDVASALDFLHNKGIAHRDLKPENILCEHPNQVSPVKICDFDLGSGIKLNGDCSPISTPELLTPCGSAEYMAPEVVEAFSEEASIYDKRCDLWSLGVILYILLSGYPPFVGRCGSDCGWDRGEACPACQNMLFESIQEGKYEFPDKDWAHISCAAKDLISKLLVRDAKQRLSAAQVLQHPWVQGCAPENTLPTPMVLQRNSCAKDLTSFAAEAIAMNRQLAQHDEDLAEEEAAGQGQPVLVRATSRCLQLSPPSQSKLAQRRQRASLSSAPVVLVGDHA
# Experimental: as §1
# BRSK2 = biological target: T3, BRSK2 (Homo sapiens, UniProt Q8IWQ3); assay: Reaction Biology kinase activity inhibition; assay type: biochemical; conditions: for IC50: validation titration, 6.25 to 100 µM, Hotspot confirmation
# T3 construct: purchased Reaction Biology (Malvern, PA)
# T3 sequence (Q8IWQ3 1-736): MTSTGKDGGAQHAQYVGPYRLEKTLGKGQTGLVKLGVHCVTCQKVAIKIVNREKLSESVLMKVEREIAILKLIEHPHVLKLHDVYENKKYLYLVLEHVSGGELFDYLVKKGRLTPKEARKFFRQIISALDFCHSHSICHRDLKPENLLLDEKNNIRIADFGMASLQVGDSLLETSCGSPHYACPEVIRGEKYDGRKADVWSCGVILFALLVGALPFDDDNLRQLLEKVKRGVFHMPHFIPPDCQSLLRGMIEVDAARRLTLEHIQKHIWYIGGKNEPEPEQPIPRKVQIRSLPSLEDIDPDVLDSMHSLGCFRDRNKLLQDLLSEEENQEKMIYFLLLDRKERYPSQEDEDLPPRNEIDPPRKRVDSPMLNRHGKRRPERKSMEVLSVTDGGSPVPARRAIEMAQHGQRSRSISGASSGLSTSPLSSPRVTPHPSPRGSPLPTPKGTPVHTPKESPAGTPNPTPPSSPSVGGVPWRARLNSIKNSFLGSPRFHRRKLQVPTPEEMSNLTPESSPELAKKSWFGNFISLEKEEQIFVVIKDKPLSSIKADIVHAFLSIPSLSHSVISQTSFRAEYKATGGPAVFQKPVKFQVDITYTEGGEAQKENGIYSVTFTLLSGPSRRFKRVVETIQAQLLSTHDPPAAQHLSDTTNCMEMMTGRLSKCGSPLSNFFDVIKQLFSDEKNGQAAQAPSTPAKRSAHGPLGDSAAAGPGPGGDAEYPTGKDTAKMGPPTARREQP
# From the text: (§2) The second screening was the Reaction Biology® (Malvern, PA) kinase activity inhibition tests, which screened for more than 600 protein kinases and lipid kinases, using miniaturized radioisotope-based assay platform with γ-^33P-ATP, followed by confirmation with IC50 kinase profiling service with 5 concentrations of test compound (i.e., DOH and DA) with curve fitting.
# CAMKK1 = biological target: T4, CAMKK1 (Homo sapiens, UniProt Q8N5S9); assay: Reaction Biology kinase activity inhibition; assay type: biochemical; conditions: for IC50: validation titration, 6.25 to 100 µM, Hotspot confirmation
# T4 construct: purchased Reaction Biology (Malvern, PA)
# T4 sequence (Q8N5S9 whole entry): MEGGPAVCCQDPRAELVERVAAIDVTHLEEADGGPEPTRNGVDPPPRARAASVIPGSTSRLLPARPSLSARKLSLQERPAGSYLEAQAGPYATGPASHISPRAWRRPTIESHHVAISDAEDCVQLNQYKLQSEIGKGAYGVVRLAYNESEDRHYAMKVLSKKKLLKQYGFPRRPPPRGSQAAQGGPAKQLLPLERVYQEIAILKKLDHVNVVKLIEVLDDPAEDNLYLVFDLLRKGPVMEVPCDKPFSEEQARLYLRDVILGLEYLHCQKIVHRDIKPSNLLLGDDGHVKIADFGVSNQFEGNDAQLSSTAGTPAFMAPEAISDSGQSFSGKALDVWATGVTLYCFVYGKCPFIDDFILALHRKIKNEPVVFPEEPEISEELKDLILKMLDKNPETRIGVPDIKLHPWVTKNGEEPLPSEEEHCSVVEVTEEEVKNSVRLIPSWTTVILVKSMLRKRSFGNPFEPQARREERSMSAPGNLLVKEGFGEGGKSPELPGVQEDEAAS
# From the text: as §2
# DDR1 = biological target: T5, DDR1 (Homo sapiens, UniProt Q08345); assay: Reaction Biology kinase activity inhibition; assay type: biochemical; conditions: for IC50: validation titration, 6.25 to 100 µM, Hotspot confirmation
# T5 construct: purchased Reaction Biology (Malvern, PA)
# T5 sequence (Q08345 19-913): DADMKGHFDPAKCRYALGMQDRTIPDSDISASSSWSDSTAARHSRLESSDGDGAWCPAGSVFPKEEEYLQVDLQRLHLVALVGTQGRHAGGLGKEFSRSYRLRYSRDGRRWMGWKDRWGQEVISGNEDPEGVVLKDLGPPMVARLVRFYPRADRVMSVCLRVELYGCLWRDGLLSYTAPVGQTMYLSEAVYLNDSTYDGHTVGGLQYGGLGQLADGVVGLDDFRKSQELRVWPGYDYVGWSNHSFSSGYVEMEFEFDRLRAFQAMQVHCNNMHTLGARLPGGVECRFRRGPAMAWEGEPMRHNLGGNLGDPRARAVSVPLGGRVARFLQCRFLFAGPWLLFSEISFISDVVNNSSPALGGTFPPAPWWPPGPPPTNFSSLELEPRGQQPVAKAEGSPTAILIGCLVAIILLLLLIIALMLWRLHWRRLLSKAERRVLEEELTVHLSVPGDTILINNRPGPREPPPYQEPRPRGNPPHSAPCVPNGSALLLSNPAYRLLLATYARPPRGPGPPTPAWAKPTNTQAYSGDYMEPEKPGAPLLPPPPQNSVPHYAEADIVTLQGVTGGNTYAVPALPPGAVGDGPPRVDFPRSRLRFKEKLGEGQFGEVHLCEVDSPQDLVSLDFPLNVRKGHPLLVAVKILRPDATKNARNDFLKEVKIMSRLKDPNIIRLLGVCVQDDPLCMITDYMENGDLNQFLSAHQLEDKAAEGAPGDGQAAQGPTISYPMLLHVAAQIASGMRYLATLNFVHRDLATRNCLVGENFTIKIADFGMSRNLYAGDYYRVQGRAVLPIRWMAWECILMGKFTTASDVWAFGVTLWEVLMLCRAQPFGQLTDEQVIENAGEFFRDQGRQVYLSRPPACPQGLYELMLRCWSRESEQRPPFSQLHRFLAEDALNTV
# From the text: as §2
# PDK2/PDHK2 = biological target: T6, PDK2/PDHK2 (Homo sapiens, UniProt Q15119); assay: Reaction Biology kinase activity inhibition; assay type: biochemical; conditions: for IC50: validation titration, 6.25 to 100 µM, Hotspot confirmation
# T6 construct: purchased Reaction Biology (Malvern, PA)
# From the text: as §2
# human MAO-A = test system: human MAO-A; set-up: method as in PMID 28109809; conditions: cited from earlier work; for IC50: read-out: MAO-A inhibition IC50
# MAO-B = test system: MAO-B; set-up: method as in PMID 28109809; conditions: screened at 10 μM; cited from earlier work
# [1] = cited from earlier work; for Cmax: 4.6 g AGN root powder per subject (0.055 mg D, 0.184 mg DA, 1.095 mg nodakenin); for t1/2 / tmax: 4.6 g AGN root powder per subject
# ROCK1 [2] = biological target: T7, ROCK1 (Homo sapiens, UniProt Q13464); assay: Reaction Biology kinase activity inhibition; assay type: biochemical; set-up: purchased Reaction Biology (Malvern, PA)
# T7 sequence (Q13464 whole entry): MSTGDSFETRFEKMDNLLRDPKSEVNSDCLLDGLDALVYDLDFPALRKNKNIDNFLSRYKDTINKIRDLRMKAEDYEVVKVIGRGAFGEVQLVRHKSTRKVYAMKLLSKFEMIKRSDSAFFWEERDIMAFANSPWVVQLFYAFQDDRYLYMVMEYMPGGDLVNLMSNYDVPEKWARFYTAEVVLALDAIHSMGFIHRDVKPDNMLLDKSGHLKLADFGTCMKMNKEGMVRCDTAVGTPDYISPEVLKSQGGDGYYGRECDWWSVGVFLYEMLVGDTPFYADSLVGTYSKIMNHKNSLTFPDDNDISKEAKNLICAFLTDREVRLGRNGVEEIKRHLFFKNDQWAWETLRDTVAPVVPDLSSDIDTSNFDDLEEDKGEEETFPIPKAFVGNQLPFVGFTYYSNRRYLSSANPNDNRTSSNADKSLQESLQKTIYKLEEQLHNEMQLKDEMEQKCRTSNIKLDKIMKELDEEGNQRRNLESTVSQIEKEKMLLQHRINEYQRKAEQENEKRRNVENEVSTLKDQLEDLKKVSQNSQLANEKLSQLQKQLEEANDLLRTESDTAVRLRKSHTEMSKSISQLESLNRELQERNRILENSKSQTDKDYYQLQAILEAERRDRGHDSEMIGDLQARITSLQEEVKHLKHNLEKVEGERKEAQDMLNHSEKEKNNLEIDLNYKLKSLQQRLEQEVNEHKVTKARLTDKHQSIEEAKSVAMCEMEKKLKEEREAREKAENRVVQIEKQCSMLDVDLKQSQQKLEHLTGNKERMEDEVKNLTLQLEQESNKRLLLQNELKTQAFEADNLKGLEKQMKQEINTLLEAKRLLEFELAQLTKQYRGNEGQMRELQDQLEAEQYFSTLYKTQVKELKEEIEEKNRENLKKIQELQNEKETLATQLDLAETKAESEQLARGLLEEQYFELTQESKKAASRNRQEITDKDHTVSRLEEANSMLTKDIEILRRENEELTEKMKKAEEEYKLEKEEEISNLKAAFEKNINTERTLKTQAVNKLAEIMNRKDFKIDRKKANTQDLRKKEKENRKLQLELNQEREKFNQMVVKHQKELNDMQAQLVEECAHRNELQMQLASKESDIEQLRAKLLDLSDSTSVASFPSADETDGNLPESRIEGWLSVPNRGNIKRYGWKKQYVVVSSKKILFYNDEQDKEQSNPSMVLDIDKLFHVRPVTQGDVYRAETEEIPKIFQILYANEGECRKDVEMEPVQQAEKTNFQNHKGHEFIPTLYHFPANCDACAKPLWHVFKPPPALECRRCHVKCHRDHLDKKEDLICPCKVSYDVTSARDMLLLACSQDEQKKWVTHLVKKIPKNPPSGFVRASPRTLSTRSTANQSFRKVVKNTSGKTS
# From the text: as §2
# ROCK2 [3] = biological target: T8, ROCK2 (Homo sapiens, UniProt O75116); assay: Reaction Biology kinase activity inhibition; assay type: biochemical; set-up: purchased Reaction Biology (Malvern, PA)
# T8 sequence (O75116 whole entry): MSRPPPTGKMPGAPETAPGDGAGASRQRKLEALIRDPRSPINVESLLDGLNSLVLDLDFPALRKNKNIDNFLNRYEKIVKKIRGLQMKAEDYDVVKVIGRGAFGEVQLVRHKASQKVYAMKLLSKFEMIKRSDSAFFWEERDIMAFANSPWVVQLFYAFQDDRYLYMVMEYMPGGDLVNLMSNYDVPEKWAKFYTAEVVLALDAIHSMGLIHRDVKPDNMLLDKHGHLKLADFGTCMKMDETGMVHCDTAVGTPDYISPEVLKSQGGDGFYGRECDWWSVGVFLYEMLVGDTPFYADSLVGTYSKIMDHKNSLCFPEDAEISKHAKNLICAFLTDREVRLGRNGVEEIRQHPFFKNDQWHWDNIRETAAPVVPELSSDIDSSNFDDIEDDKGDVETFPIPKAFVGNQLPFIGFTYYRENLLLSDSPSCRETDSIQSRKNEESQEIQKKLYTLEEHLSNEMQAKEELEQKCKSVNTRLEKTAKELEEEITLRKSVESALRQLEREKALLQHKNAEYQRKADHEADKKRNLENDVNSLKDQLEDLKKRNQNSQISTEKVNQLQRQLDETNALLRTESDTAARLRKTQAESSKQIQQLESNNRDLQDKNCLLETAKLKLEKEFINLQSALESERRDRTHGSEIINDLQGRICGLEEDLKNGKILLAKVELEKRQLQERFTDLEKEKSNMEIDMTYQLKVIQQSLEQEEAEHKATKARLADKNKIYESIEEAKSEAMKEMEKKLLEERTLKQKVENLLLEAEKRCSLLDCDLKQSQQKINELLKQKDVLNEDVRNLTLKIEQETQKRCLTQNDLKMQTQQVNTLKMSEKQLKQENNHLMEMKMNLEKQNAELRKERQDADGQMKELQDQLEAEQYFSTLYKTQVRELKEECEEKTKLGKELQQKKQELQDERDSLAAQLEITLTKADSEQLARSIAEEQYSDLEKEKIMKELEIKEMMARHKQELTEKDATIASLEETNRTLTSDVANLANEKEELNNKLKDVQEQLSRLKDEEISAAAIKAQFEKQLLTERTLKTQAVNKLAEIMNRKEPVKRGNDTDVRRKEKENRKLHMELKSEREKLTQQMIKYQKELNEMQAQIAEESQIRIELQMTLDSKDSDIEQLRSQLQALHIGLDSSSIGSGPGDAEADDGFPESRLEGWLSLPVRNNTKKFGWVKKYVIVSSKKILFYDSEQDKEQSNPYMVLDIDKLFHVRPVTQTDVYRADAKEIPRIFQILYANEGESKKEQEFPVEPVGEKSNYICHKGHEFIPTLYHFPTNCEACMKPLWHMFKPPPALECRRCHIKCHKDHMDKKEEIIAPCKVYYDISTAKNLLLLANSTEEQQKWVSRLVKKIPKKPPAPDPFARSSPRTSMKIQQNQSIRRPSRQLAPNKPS
# From the text: as §2
# ROCK1 [4] = biological target: T7, ROCK1; assay: KINOMEscan competition binding; set-up: purchased Eurofins DiscoverX (KINOMEscan)
# Experimental: as §1
# ROCK2 [5] = biological target: T8, ROCK2; assay: KINOMEscan competition binding; set-up: purchased Eurofins DiscoverX (KINOMEscan)
# Experimental: as §1
# [6] = Reaction Biology, Inc, Table 1, read-out: ROCK1 IC50
# [7] = validation titration, 6.25 to 100 µM, Hotspot confirmation, read-out: IC50
# [8] = Reaction Biology, Inc, Table 1, read-out: ROCK2 IC50
# [9] = Eurofins DiscoveRx, Table 1, read-out: ROCK1 Kd
# [10] = validation Kd titration, 0.003 to 50 µM, two values per cell, read-out: Kd
# [11] = Eurofins DiscoveRx, Table 1, read-out: ROCK2 Kd
# [12] = initial screening, DOH 50 µM, read-out: Substrate bound % Control
# [13] = initial screening, DOH (50 µM), Data 1 and Data 2
# [14] = initial screening, DOH (50 µM), Data 1 and Data 2, read-out: % Enzyme Activity (relative to DMSO controls)
compound,measurement,setting,value
"C/C=C(/C)C(=O)O[C@H]1Cc2cc3ccc(=O)oc3cc2OC1(C)C [DA, decursinol angelate]",Kd,DRAK2 (STK17B),> 50 µM
same,Kd,MKNK2,> 50 µM
same,IC50,BRSK2,> 100 µM
same,IC50,CAMKK1,> 100 µM
same,IC50,DDR1,> 100 µM
same,IC50,PDK2/PDHK2,> 100 µM
same,IC50,human MAO-A,12.8 µM
same,inhibitory activity on MAO-B,MAO-B,lacked any inhibitory activity
same,Cmax,[1],7.72 ng/mL
same,t1/2,[1],4.04 h
same,tmax,[1],0.31 h
same,IC50,ROCK1 [2]; [6],18 µM
same,IC50,ROCK1 [2]; [7],16 µM and 20 µM
same,IC50,ROCK2 [3]; [8],23 µM
same,IC50,ROCK2 [3]; [7],22 µM
same,Kd,ROCK1 [4]; [9],2.1 µM
same,Kd,ROCK1 [4]; [10],1.9 µM and 2.3 µM
same,Kd,ROCK2 [5]; [11],5.6 µM
same,Kd,ROCK2 [5]; [10],5.4 µM and 5.8 µM
"CC1(C)Oc2cc3oc(=O)ccc3cc2C[C@@H]1O [DOH, decursinol]",remaining binding at 50 µM,DRAK2 (STK17B); [12],24%
same,Kd,DRAK2 (STK17B),21 µM and 22 µM
same,remaining binding at 50 µM,MKNK2; [12],25%
same,Kd,MKNK2,20 µM and 25 µM
same,inhibition at 50 µM,"BRSK2; initial screening, DOH 50 µM",46.8%
same,% Enzyme Activity (relative to DMSO controls),BRSK2; [13],52.6%
same,remaining activity at 50 µM,BRSK2; [14],53.8%
same,IC50,BRSK2,> 100 µM
same,inhibition at 50 µM,"CAMKK1; initial screening, DOH 50 µM",40.3%
same,% Enzyme Activity (relative to DMSO controls),CAMKK1; [13],59.3%
same,remaining activity at 50 µM,CAMKK1; [14],60.1%
same,IC50,CAMKK1,> 100 µM
same,inhibition at 50 µM,"DDR1; initial screening, DOH 50 µM",49%
same,% Enzyme Activity (relative to DMSO controls),DDR1; [13],49.7%
same,remaining activity at 50 µM,DDR1; [14],52.3%
same,IC50,DDR1,> 100 µM
same,inhibition at 50 µM,"PDK2/PDHK2; initial screening, DOH 50 µM",39.7%
same,% Enzyme Activity (relative to DMSO controls),PDK2/PDHK2; [13],59.8%
same,remaining activity at 50 µM,PDK2/PDHK2; [14],60.8%
same,IC50,PDK2/PDHK2,> 100 µM
same,MAO-A initial screen,human MAO-A; at 10 μM,failed the initial screen
same,IC50,human MAO-A,> 10 µM
same,inhibitory activity on MAO-B,MAO-B,lacked any inhibitory activity
same,Cmax,[1],0.92 ng/mL
same,t1/2,[1],2.62 h
same,tmax,[1],0.64 h
same,IC50,ROCK1 [2]; [6],81 µM
same,DOH % Inhibition,"ROCK1 [2]; initial screening, DOH 50 µM",26.6%
same,inhibition at 50 µM,"ROCK1 [2]; initial screening, DOH 50 µM",27%
same,% Enzyme Activity (relative to DMSO controls),ROCK1 [2]; [13],72.1%
same,remaining activity at 50 µM,ROCK1 [2]; [14],74.7%
same,IC50,ROCK2 [3]; [8],85 µM
same,DOH % Inhibition,"ROCK2 [3]; initial screening, DOH 50 µM",43.2%
same,inhibition at 50 µM,"ROCK2 [3]; initial screening, DOH 50 µM",43%
same,% Enzyme Activity (relative to DMSO controls),ROCK2 [3]; [13],56.1%
same,remaining activity at 50 µM,ROCK2 [3]; [14],57.5%
same,Kd,ROCK1 [4]; [9],7.5 µM
same,remaining binding at 50 µM,ROCK1 [4]; [12],12%
same,Kd,ROCK1 [4]; [10],7.3 µM and 7.6 µM
same,Kd,ROCK2 [5]; [11],14.5 µM
same,remaining binding at 50 µM,ROCK2 [5]; [12],21%
same,Kd,ROCK2 [5]; [10],14 µM and 15 µM
